# Data as given in patent US9650339B2, “Inhibitors of histone demethylases” (Gilead Sciences, Inc., priority 2013, dated 2017).
# What was measured:
# KDM3A (JMJD1A) = target: T1, KDM3A (JMJD1A) (Homo sapiens, UniProt Q9Y4C1); assay: Histone lysine demethylase AlphaLISA assay, KDM3A; format: biochemical; conditions: read-out: KDM3 A HDME Inhibition IC50
# T1 construct: 2-end; purchased BPS Bioscience, US; host or cells: Bac (baculovirus system)
# T1 sequence (Q9Y4C1 2-1321 limits assumed): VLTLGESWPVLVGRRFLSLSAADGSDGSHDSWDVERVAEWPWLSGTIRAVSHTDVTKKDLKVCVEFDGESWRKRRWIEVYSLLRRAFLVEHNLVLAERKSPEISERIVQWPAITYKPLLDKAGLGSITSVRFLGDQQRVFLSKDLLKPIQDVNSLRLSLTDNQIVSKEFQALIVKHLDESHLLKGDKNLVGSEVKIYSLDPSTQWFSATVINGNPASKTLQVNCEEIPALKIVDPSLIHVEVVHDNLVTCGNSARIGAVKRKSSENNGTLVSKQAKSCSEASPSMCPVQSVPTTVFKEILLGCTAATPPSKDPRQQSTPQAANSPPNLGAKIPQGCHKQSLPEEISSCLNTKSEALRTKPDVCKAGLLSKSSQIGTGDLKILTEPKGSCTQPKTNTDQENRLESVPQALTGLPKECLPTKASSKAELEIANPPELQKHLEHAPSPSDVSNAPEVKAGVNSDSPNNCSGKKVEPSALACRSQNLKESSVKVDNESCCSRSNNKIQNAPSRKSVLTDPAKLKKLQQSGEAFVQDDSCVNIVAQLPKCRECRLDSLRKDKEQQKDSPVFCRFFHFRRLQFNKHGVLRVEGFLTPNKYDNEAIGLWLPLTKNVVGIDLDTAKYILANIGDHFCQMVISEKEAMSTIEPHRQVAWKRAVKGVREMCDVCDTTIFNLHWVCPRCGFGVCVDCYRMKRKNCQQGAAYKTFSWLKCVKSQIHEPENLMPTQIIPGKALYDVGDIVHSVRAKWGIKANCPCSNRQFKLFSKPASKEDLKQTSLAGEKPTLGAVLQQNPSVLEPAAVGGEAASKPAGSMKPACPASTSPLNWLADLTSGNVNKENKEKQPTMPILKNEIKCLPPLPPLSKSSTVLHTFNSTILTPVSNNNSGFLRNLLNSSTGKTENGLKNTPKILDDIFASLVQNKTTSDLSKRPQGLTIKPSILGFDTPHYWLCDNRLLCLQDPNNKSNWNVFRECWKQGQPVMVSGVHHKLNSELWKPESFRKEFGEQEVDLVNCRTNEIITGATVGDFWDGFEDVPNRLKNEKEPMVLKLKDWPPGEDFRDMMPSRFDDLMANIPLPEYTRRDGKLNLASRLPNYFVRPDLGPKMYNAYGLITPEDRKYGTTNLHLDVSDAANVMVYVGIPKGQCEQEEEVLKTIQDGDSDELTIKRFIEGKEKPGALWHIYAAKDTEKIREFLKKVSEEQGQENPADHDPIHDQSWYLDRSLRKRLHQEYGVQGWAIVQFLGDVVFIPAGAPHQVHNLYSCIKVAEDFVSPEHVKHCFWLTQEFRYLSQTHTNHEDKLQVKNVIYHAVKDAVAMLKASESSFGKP
# Method in brief: (§1)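 AlphaLISA demethylation readout: enzyme preincubated 10 min, then 10 min with compounds in 3% DMSO buffer, before biotinylated methyl-lysine histone peptide substrate with 25 μM L-Asc and 10 μM α-KG, room temperature. Acceptor beads then streptavidin donor beads added, dark incubation, plates read.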
# MCF7 cells = assay: Cell proliferation assay MCF7; format: cell-based; conditions: MCF7 human breast cancer cells; 120 hours; ATPlite 1 Step
# Method in brief: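 Cells grown 24 h in DMEM GlutaMAX/10% FBS, then exposed to compounds in duplicate (≤0.5% DMSO) for 120 h. Viability read as ATP luminescence (ATPlite 1 Step). Seeding set to reach ~90% confluence at harvest.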
# KDM4C (JMJD2C) = target: T2, KDM4C (JMJD2C) (Homo sapiens, UniProt Q9H3R0); assay: Histone lysine demethylase AlphaLISA assay, KDM4C; format: biochemical; conditions: read-out: KDM4C HDME Inhibition IC50
# T2 sequence (Q9H3R0 1-349): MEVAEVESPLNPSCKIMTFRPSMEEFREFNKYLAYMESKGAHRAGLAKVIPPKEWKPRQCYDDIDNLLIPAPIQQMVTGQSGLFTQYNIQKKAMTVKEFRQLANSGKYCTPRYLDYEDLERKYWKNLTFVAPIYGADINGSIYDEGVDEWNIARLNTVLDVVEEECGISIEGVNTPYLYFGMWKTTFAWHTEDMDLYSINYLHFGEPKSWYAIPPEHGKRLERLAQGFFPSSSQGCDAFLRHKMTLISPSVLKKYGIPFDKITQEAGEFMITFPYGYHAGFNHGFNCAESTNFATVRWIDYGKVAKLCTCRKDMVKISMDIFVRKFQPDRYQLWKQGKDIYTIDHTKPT
# Method in brief: as §1
SMILES,IC50 (KDM3A (JMJD1A)) [µM],EC50 (MCF7 cells) [µM],IC50 (KDM4C (JMJD2C)) [µM]
"CN(C)C/C=C/CNCc1cc(C=O)ccn1 [Compound 98, 2-({[(2E)-4-(dimethylamino)but-2-en-1-yl]amino}-methyl)pyridine-4-carbaldehyde]",> 2.5,< 0.25,0.25 to 2.5
"CN(C)C/C=C\CNCc1cc(C=O)ccn1 [Compound 99, 2-({[(2Z)-4-(dimethylamino)-but-2-en-1-yl]amino}methyl)-pyridine-4-carbaldehyde]",> 2.5,> 2.5,> 2.5
"CN1CCC(CNCc2cc(C=O)ccn2)CC1 [Compound 100, 2-({[(1-methyl-piperidin-4-yl)methyl]amino}-methyl)pyridine-4-carbaldehyde]",> 2.5,< 0.25,> 2.5
CCN(CCN(C)C)C(=O)CNCc1cc(C=O)ccn1 [Compound 101],> 2.5,< 0.25,< 0.25

# Further lines, results first:
IC50 (KDM3A (JMJD1A)) [µM],EC50 (MCF7 cells) [µM],IC50 (KDM4C (JMJD2C)) [µM],SMILES
> 2.5,0.25 to 2.5,< 0.25,"O=Cc1ccnc(CNCC(=O)N2CCC[C@@H]2CN2CCCC2)c1 [Compound 102, 2-[({2-oxo-2-[(2R)-2-(pyrrolidin-1-ylmethyl)pyrrolidin-1-yl]ethyl}amino)-methyl]pyridine-4-carbaldehyde]"
> 2.5,< 0.25,> 2.5,"CCN(CC)CCCCNCc1cc(C=O)ccn1 [Compound 107, 2-({[4-(diethylamino)-butyl]amino}-methyl)pyridine-4-carbaldehyde]"
> 2.5,< 0.25,> 2.5,"O=Cc1ccnc(CNCCCN2CCCC2)c1 [Compound 111, 2-({[3-(pyrrolidin-1-yl)propyl]amino}-methyl)pyridine-4-carbaldehyde]"
> 2.5,< 0.25,> 2.5,"CCN(CC)CCCCN(Cc1cc(C=O)ccn1)C(=O)C(F)(F)F [Compound 115, N-[4-(diethylamino)butyl]-2,2,2-trifluoro-N-[(4-formylpyridin-2-yl)methyl]acetamide]"
